According to US8729132B2, “Agomelatine hydrobromide hydrate and preparation thereof” (Les Laboratoires Servier, priority 2010, dated 2014):
Where a name gives a salt, the structure may show the parent alone.

Experiments:
Type in all cases: physicochemical
[1] = Water solubility by HPLC, external standard method
Procedure: Using external standard method, the product of example 1 was tested with HPLC, compared with agomelatine crystalline form II.

[2] = Stability test, incubator at 40° C. for 30 days, HPLC
Procedure: Chromatographic conditions: C18 column; mobile phase: 10 mmol/L phosphate buffer (adjusted to pH 7.0 with NaOH): acetonitrile=2:7 (v/v); column temperature: 40° C.; detection wavelength: 220 nm; internal standard method was used on the products of examples 1 and 2.
Solutions of the products at 1 mg/mL were prepared with the mobile phase. 10 μL of each solution was injected into the liquid chromatograph system and chromatograms were recorded. The results of the purity are shown in examples 1 and 2.
The product of example 1 was placed in an incubator at 40° C. for 30 days to determine its stability with HPLC.

[3] = Stability test per Chinese Pharmacopoeia (affecting factors, accelerated, long-term); conditions: for Water: initial 5.25%; for Br: initial 23.21%; for Purity of agomelatine hydrobromide hydrate: initial value 99.89%
Procedure: The method for stability test as described in Chinese Pharmacopoeia was used in this test. • 1) Affecting factors test (in open container for 10 days): high temperature (60° C.), photostability under strong light ([…]), high humidity (92.5% RH at 25° C.) • 2) Accelerated test (in closed container for 6 months): at 40° C., humidity: 75% RH • 3) Long-term test (in closed container for 9 months): at 25° C., humidity: 60% RH

[4] = Accelerated test: closed container, 6 months, 40° C., 75% RH
[5] = Affecting factors: high humidity (92.5% RH at 25° C.), open container, 10 days
[6] = Affecting factors: high temperature (60° C.), open container, 10 days
[7] = Affecting factors: strong light (45001x), open container, 10 days
[8] = Long-term test: closed container, 9 months, 25° C., 60% RH

COc1ccc2cccc(CCNC(C)=O)c2c1 [AG crystalline form II, N-[2-(7-methoxy-1-naphthyl)ethyl]-acetamide, reference compound]
Agomelatine content ([1]; In 0.1N HCl): 0.30 mg/mL | Agomelatine content ([1]; In pH 7.0 buffer): 0.25 mg/mL | Agomelatine content ([1]; In water): 0.26 mg/mL

COc1ccc2cccc(CCNC(C)=O)c2c1 [AG•HBr•H2O, agomelatine hydrobromide hydrate]
stability with HPLC (purity) ([2]; Day 0): 99.7% | stability with HPLC (purity) ([2]; Day 5): 99.7% | stability with HPLC (purity) ([2]; Day 10): 99.6% | stability with HPLC (purity) ([2]; Day 30): 99.6% | Agomelatine content ([1]; In 0.1N HCl, hydrobromide hydrate): 0.37 mg/mL | Agomelatine content ([1]; In pH 7.0 buffer, hydrobromide hydrate): 0.31 mg/mL | Agomelatine content ([1]; In water, hydrobromide hydrate): 0.33 mg/mL | solubility compared with agomelatine per se ([1]; in water, 0.1N HCl or pH 7.0 buffer): better solubility than agomelatine per se | Water [3, 4]: 5.41% | Br [3, 4]: 23.07% | Purity of agomelatine hydrobromide hydrate [3, 4]: 99.83% | Water [3, 5]: 5.45% | Br [3, 5]: 23.11% | Purity of agomelatine hydrobromide hydrate [3, 5]: 99.83% | Water [3, 6]: 5.18% | Br [3, 6]: 21.95% | Purity of agomelatine hydrobromide hydrate [3, 6]: 99.87% | Water [3, 7]: 5.22% | Br [3, 7]: 22.61% | Purity of agomelatine hydrobromide hydrate [3, 7]: 99.71% | Water [3, 8]: 5.18% | Br [3, 8]: 22.52% | Purity of agomelatine hydrobromide hydrate [3, 8]: 99.84% | stability (overall conclusion) ([3]; affecting factors, accelerated and long-term tests): stable
